From US4132778A, “Antibiotic A-32887” (Eli Lilly and Company, priority 1977, dated 1979)

Columns and labels:
Staphylococcus aureus = assay: Conventional disc-diffusion method, Table VIII; assay type: cell-based; details: each as Na-K salts
Description: (§1) The antimicrobial activity of two typical A-32887 acyl ester derivatives is compared with that of A-32887 (each as Na-K salts) in Table VIII. Activity against illustrative bacteria is measured by the conventional disc-diffusion method. In addition, the results of a conventional paper-disc agar-diffusion assay system (Plate Assay) against Bacillus subtilis ATCC 6633 are reported. […] The samples were assayed at 1 mg/ml.

Micrococcus lutea = assay: Conventional disc-diffusion method, Table VIII; assay type: cell-based; details: each as Na-K salts
Description: as §1

Bacillus subtilis [1] = assay: Conventional disc-diffusion method, Table VIII; assay type: cell-based; details: each as Na-K salts
Description: as §1

[2] = system: type B influenza virus (Maryland, dog kidney); assay: In vitro plaque suppression test; assay type: cell-based
[3] = system: Infectious Canine Hepatitis virus; assay: In vitro plaque suppression test
[4] = Ion binding / ion transport (ionophore)
Description: A-32887 can be used when the selective removal of particular cations is desired. Examples of such uses include the removal and recovery of silver ions from solutions in photography, the removal of toxic cations from industrial waste streams before such streams are discharged to the environment, and desalinization of sea water. A-32887 can be used as one component of an ion-specific electrode (O. Kedem, et al., U.S. Pat. No. 3,753,887, Aug. 21, 1973, Alkali metal specific measuring electrode). […] A-32887 can be used, therefore, as a component in a membrane used for the selective transport of cations against a concentration gradient. One potential application of this property is in recovery of heavy and precious metals on a commercial basis [see E. L. Cussler, D. F. Evans, and Sister M. A. Matesick, Science 172, 377 (1971)].

[5] = system: Transmissible Gastroenteritis virus; assay: In vitro plaque suppression test
Bacillus subtilis [6] = assay: Conventional disc-diffusion method, minimal media, Table VIII; assay type: cell-based; details: each as Na-K salts

Which results are given for `CO[C@H]1CC[C@H](OC2[C@@H](C)[C@@](C)(O)O[C@H]([C@H]3CC[C@H]([C@@H]4CC[C@H]([C@@]5(C)O[C@]6(O[C@H](C[C@@H]7O[C@](O)([C@@H](O)C(=O)O)[C@@H](C)[C@H](OC)[C@@]7(C)OC)C[C@@H](OC)[C@H]6C)[C@H](C)[C@H]5OC)O4)O3)[C@H]2C)O[C@@H]1C.[K+].[Na+]` (stereo partly drawn) [A-32887]?
activity by disc-diffusion, Staphylococcus aureus (Staphylococcus aureus): 16; activity by disc-diffusion, Micrococcus lutea (Micrococcus lutea): 16; activity by disc-diffusion, Bacillus subtilis (Bacillus subtilis [1]): 18; antiviral activity [2]: active; antiviral activity [3]: active; cation permeability of natural and artificial membranes [4]: alters the cation permeability of both natural and artificial membranes; ion-binding and ion-transport properties [4]: exhibits ion-binding and ion-transport properties; antiviral activity [5]: active; activity by disc-diffusion, Bacillus subtilis (Bacillus subtilis [6]): 30
